Measured values reported in US20110152267A1, “Compositions and Methods for Treating Hyperproliferative Disorders” (Texas Tech University System, priority 2009, published 2011).

Legend:
[1] = tested on: COG-LL-317 Acute Lymphoblastic Leukemia (ALL) cancer cell line; assay: DIMSCAN cytotoxicity dose-response with fenretinide (Examples A, FIGS. 5, 11, 17); format: cell-based, human; conditions: 5% oxygen, at one or more doses, +96 hrs
Procedure: (§1) Cytotoxicity Assay: Cytotoxicity in cell lines was determined using a fluorescence-based assay employing digital imaging microscopy (DIMSCAN)(after Fragala, et al, Mol Cancer Ther, 6:886-897, 2007). DIMSCAN quantitates viable cells which selectively accumulate fluorescein diacetate and is capable of measuring cytotoxicity over a 4-5 log dynamic range by quantifying total fluorescence per well (which is proportional to viable, clonogenic cells) after eliminating background fluorescence using digital thresholding and eosin Y quenching. Briefly, cell lines were seeded into 96-well plates in 100 µL of complete culture medium (10-20% serum) per well. Cells were incubated overnight in 2%, 5% or 20% oxygen (room air) prior to addition of drugs in […] volumes of complete medium to various final drug concentrations in replicates of 12 wells per concentration. In assays employing D-threo-PPMP, PPMP was employed at a fixed, minimally-toxic, final concentration of 10 μM in each well. Control wells received ethanol (final concentration=0.12%-0.20%) in complete medium equivalent to the maximum final ethanol concentration of drug-treated wells. Plates were incubated at various oxygen concentrations to simulate physiological hypoxia (i.e., 2% oxygen=typical solid tumor oxygen levels; 5%=bone marrow oxygen levels for leukemias; 20% room air=supraphysiological oxygen for comparison with typical laboratory culture conditions). Plates were assayed at 3-4 days after initiating drug exposure depending on the growth properties of each cell line, to allow for maximum cell death and outgrowth of surviving cells. To measure cytotoxicity, FDA (stock solution of 1 mg/ml in DMSO) was added, in 50 µL of complete medium per well, to a final concentration of 10 µg/ml. The plates were incubated for an additional 15-30 minutes at 37 C and then 30 µL of eosin Y (0.5% in normal saline) was added per well. Total fluorescence of each well was then measured using digital imaging microscopy. […]

[2] = tested on: CRL-2091 normal human fibroblast cell line; assay: DIMSCAN cytotoxicity, fenretinide + L-threo-sphinganines 3:1 (Example B1); format: cell-based; conditions: CRL-2091, 20% O2, 96 h
Procedure: (§2) Cytotoxicity Assay—Once again, cytotoxicity is determined using the DIMSCAN assay system (R. Proffitt et al., Cytometry 24, 204-213 (1996); T. Frgala et al., Mol Cancer Ther. 6:886-97, 2007). The system employs digital imaging microscopy to quantify viable cells, which selectively accumulate fluorescein diacetate to become brightly fluorescent. The system is capable of measuring cytotoxicity over a 4-5 log dynamic range by quenching the residual fluorescence of dead and dying cells with eosin Y and quantifying the total fluorescence of viable cells using digital thresholding. Measured fluorescence is directly proportionate to the number of viable cells. A comparison of the total fluorescence of a drug-treated cell population to the fluorescence of a similar number of untreated cells yields a survival fraction. In brief, 2000 to 10,000 cells/well (depending on size and growth rates) are replicate plated into 60 wells of a 96-well tissue culture plate in 0.1 mL of whole medium and allowed to attach overnight. Drug(s) are then added in 0.05 mL of whole medium to the final concentrations indicated. Drugs (fenretinide, and various chain length L-threo-sphinganines) were tested both as single agents and in a 3:1 ratio of fenretinide:sphinganine. C18-L-threo-sphinganine, or “safingol,” was also tested and results shown for reference. There are 12 wells treated per drug concentration. Twelve wells receive drug vehicle-only to the appropriate final concentration and serve as controls for the plate. Cells are incubated for 96 hours at 37° C. in ambient air with 5% CO2. Fluorescein diacetate is then added to each well in 0.05 mL media to a final concentration of 8 microgram/mL. Cells are incubated for a further 15 minutes at 37° C. and 0.03 mL of 0.5% eosin Y is added to each well. Total fluorescence of viable cells is then measured by digital imaging microscopy. Results were graphed as the ratio of the fluoresecence of drug-treated wells to non-drug treated control wells (i.e., Survival Fraction). All tests were performed at least twice. Representative results are shown.
(§3) The Combination Index (CI) is a term to describe mathematical modeling of the pharmacologic effects on cytotoxicity (cell death) of two drugs in combination based. Cytotoxic “synergy” is defined as a cell death affect which is greater than would be expected from a simple product of the single agent cytotoxicities alone (i.e. an “additive” effect). By Chou-Talalay analysis, a CI<0.9 on a Fraction Affected (“Fa”, i.e. fraction of cells killed) indicates synergy, with smaller numbers indicating greater synergy; a CI of 0.9-1.1 signifies an additive or near-additive effect; and a CI>1.1 means the drug combination is antagonistic.
(§4) Fenretinide and L-threo-sphinganines tested in normal human fibroblast (normal skin cell) cell lines, CRL-2091 and CRL-2076.

[3] = tested on: CRL-2076 normal human fibroblast cell line; assay: as above; format: cell-based; conditions: CRL-2076, 20% O2, 96 h
Procedure: as §2, §3, §4

[4] = tested on: CHLA-266 brain cancer (PNET) cell line; assay: DIMSCAN cytotoxicity dose-response with fenretinide (Examples A, FIGS. 2, 8, 13); format: cell-based, human; conditions: 2% oxygen, at one or more doses, +96 hrs
Procedure: as §1

[5] = tested on: MDA-MB-231 breast adenocarcinoma cell line; assay: DIMSCAN cytotoxicity, fenretinide + L-threo-sphinganines 3:1 (Example B14); format: cell-based, human; conditions: MDA-MB-231, 20% O2, 96 h
Procedure: as §2, §3
(§5) Fenretinide and L-threo-sphinganines tested in human breast adenocarcinoma (breast cancer) cell lines, MCF-7 and MDA-MB-231.

[6] = tested on: MCF-7 breast adenocarcinoma cell line; assay: as above; format: cell-based, human; conditions: 96 h
Procedure: as §2, §3, §5

[7] = 4-HPR 1.5 μM + L-threo-sphinganine 0.5 μM
[8] = 4-HPR 3 μM + L-threo-sphinganine 1 μM
[9] = 4-HPR 6 μM + L-threo-sphinganine 2 μM
[10] = 4-HPR 9 μM + L-threo-sphinganine 3 μM

## CCCCCCCCCCCCCC[C@H](O)[C@@H](N)CO [C17, (2S,3S)-2-amino-1,3-heptadecanediol]
[1]
  C.I. (Combination Index) with fenretinide: < 1
[2]; [7]
  CI (Combination Index): >1
  Fa (fraction affected): 0.13
[2]; [8]
  CI (Combination Index): >1
  Fa (fraction affected): 0.25
[2]; [9]
  CI (Combination Index): >1
  Fa (fraction affected): 0.13
[2]; [10]
  CI (Combination Index): >1
  Fa (fraction affected): 0.62
[3]; [7]
  CI (Combination Index): >1
  Fa (fraction affected): 0.05
[3]; [8]
  CI (Combination Index): >1
  Fa (fraction affected): 0.04
[3]; [9]
  CI (Combination Index): >1
  Fa (fraction affected): 0.09
[3]; [10]
  CI (Combination Index): >1
  Fa (fraction affected): 0.15
[4]
  C.I. (Combination Index) with fenretinide: < 1
[5]; [7]
  CI (Combination Index): 1.3
  Fa (fraction affected): 0.127
[5]; [8]
  CI (Combination Index): 0.9
  Fa (fraction affected): 0.265
[5]; [9]
  CI (Combination Index): 0.8
  Fa (fraction affected): 0.610
[5]; [10]
  CI (Combination Index): 0.7
  Fa (fraction affected): 0.948
[6]; [7]
  CI (Combination Index): 1.3
  Fa (fraction affected): 0.112
[6]; [8]
  CI (Combination Index): 0.7
  Fa (fraction affected): 0.661
[6]; [9]
  CI (Combination Index): 0.4
  Fa (fraction affected): 0.974
[6]; [10]
  CI (Combination Index): 0.4
  Fa (fraction affected): 0.993
